The values that follow come from US20180221352A1, “3-(1H-PYRROLO[2,3-C]PYRIDIN-2-YL)-1H-PYRAZOLO[3,4-B]PYRIDINES AND THERAPEUTIC USES THEREOF” (Samumed, LLC, priority 2015, published 2018).

Type in all cases: cell-based
In test [1] the test system is primary human fibroblasts derived from IPF patients (LL29 cells). The experiment in a line: Inhibition of fibrotic process, αSMA staining in TGF-β1 treated fibroblasts. The note with it: Fibroblast, 96 h, LL29 cells, TGF-β1 20 ng/mL, 4 days, % αSMA positive cells. The procedure: Representative compounds were screened using primary human fibroblasts (derived from IPF patients) treated with TGF-β1 to determine their ability to inhibit the fibrotic process.
LL29 cells are plated at 1,500 cells/well in 80 μL/well F12 medium supplemented with 1% Fetal Bovine Serum. […] Wells treated with TGF-31 and containing DMSO were used as controls. […] Following incubation for 4 days, SYTOX green nucleic acid stain (Life Technologies [Thermo Fisher Scientific]) was added to the wells at a final concentration of 1 μM and incubated at room temperature for 30 min.

The test system of the next test is SW480 colon cancer cells. Briefly: Cell viability assay (CellTiter-Blue). The note with it: Homo sapiens; for pEC50: 96 h, SW480 cell viability, four days. The procedure:
Representative compounds were screened using the following assay procedure to assess the effect on cell viability as described below.
Approximately 2×10^3 SW480 colon cancer cells were seeded into each well and allowed to incubate in the presence or absence of compound for four days at 37° C./5% CO2. Eight replicates of DMSO-treated cells served as controls and cells treated with compound were performed in duplicate.
After incubation, 20 μL of CellTiter-Blue (Promega) was added to each well allowed to incubate for approximately 3 hours. This reagent was a buffered solution which contains resazurin, metabolically active cells were able to reduce rezarurin (blue) into resorufin (pink) which was highly fluorescent. This measured fluorescence was used as a readout for cell viability.
(In general: The colour change of resazurin is a common sign of viable cells or microbes.)

The test system of another test is IL-6. Briefly: IL-6 inhibition in LPS-stimulated THP-1 cells (HTRF). The note with it: Homo sapiens; for pEC50: THP-1 cells, LPS 500 ng/mL, 22 hours, IL6 HTRF; for inhibition at 10 µM: THP-1, read-out: percent inhibition at 10 μM. The protocol: THP-1 cells were cultured in basal media with 1% FBS for 24 hours before the start of the assay. […] THP-1 cells were plated at 5000 cells/well in the 384-well plates and incubated at 37° C. for 2 h. 500 ng/mL of LPS was added after 2 hours and cells were incubated for another 22 hours at 37° C. Plates were spun in a centrifuge for 1 minute at […] and a mixture of anti-IL6 XL665, and anti-IL6 Cryptate diluted in reconstitution buffer (Cisbio Inc.) was added to each well. Following incubation for 3 hrs at room temperature, Homogeneous Time-Resolved Fluorescence (HTRF) was measured using the Envision (Perkin Elmer) at 665 nm and […]. The ratio of fluorescence at 665 nm to 620 nm was used as a readout for IL6 quantification. All samples were processed in duplicate. Readings were normalized to DMSO treated cells and normalized activities were utilized for EC50 calculations using the dose-response log (inhibitor) vs. response−variable slope (four parameters) nonlinear regression feature available in GraphPad Prism 5.0 (or Dotmatics).

Test [2] deals with Wnt activity (Sp5-Luc reporter, SW480 colon carcinoma cells). The experiment in a line: Wnt activity screening assay, Sp5-Luc reporter gene in SW480 cells. The following applies: Homo sapiens; for pEC50: Sp5-Luc reporter, SW480 cells, overnight incubation. An excerpt:
The screening assay for Wnt activity is described as follows. Reporter cell lines can be generated by stably transducing cancer cell lines (e.g., colon cancer) or primary cells (e.g., IEC-6 intestinal cells) with a lentiviral construct that includes a Wnt-responsive promoter driving expression of the firefly luciferase gene.
SW480 colon carcinoma cells were transduced with a lentiviral vector expressing luciferase with a human Sp5 promoter consisting of a sequence of eight TCF/LEF binding sites. SW480 cells stably expressing the Sp5-Luc reporter gene and a hygromycin resistance gene were selected by treatment with 150 μg/mL of hygromycin for 7 days. These stably transduced SW480 cells were expanded in cell culture and used for all further screening activities. […] For Sp5-Luc reporter gene assays, the cells were plated at 4,000 cells/well in 384-well plates with medium containing 1% fetal bovine serum and incubated overnight at 37° C. and 5% CO2. Following incubation, 20 μl of BrightGlo luminescence reagent (Promega) was added to each well of the 384-well assay plates. The plates were placed on an orbital shaker for 2 min and then luminescence was quantified using the Envision (Perkin Elmer) plate reader. Readings were normalized to DMSO only treated cells, and normalized activities were utilized for EC50 calculations using the dose-response log (inhibitor) vs. response−variable slope (four parameters) nonlinear regression feature available in GraphPad Prism 5.0 (or Dotmatics).

Test [3] relates to primary human mesenchymal stem cells (hMSCs). The experiment in a line: Induction of chondrogenesis in hMSCs (nodule count). The note with it: 6 days; for EC50: concentration required to induce 50% levels of chondrogenesis vs TGF-β3, read-out: Conc (nM) of 50% TGF-β3 activity; for Emax: relative to TGF-β3 (10 ng/mL) positive control, read-out: Max. Activity as % TGF-β3 activity. An excerpt: Representative compounds were screened using primary human mesenchymal stem cells (hMSCs) to determine their ability to induce chondrogenesis (process by which cartilage is developed).
Primary human mesenchymal stem cells (hMSCs) were purchased from Lonza (Walkersville, Md.) and expanded in Mesenchymal Stem Cell Growth Media (Lonza). Cells between passage 3 and 6 were used for the experiments.
To image chondrogenic nodules, the cells were fixed using 4% formaldehyde (Electron Microscopy Sciences), and stained with 2 μg/mL Rhodamine B (Sigma-Aldrich) and 20 μM Nile Red (Sigma-Aldrich) [Johnson K., et. al, A Stem Cell-Based Approach to Cartilage Repair, Science, (2012). […] Number of nodules in each well was normalized to the average of 3 DMSO treated wells on the same plate using Excel (Microsoft Inc.). The normalized averages (fold change over DMSO) of 3 replicate wells for each compound concentration were calculated. Due to solubility limitations of some of the compounds, curve fitting was incomplete leading to inaccurate EC50 determinations.
Using TGF-β3 as a positive control, the concentration of representative compounds required to induce 50% levels of chondrogenesis is reported. In addition, the maximum activity of each compound and the respective dose that each compound reached maximum chondrogenesis activity is reported.

The structures appear in SMILES notation. pEC50: −log10 of the molar value. A value given as a limit tells only on which side of the number the result lay.

What is called pEC50 is the negative decadic logarithm of the EC50, by convention in mol/L. In the case of `CCC(=O)Nc1cncc(-c2cnc3[nH]nc(-c4cc5c(-c6cccc(F)c6)cncc5[nH]4)c3c2)c1` [Compound 1, N-(5-(3-(4-(3-Fluorophenyl)-1H-pyrrolo[2,3-c]pyridin-2-yl)-1H-pyrazolo [3,4-b]pyridin-5-yl)pyridin-3-yl)propionamide], the pEC50 in test [1] was 6.07; in the test with SW480 colon cancer cells, 6.11; in the test on IL-6, 5.93; in test [2], 6.61. In addition, the EC50 in test [3] turned out to be 10 nM. The Emax in test [3] turned out to be 113%.
Take `Fc1cccc(-c2cncc3[nH]c(-c4n[nH]c5ncc(-c6cccnc6)cc45)cc23)c1` [Compound 4, 3-(4-(3-Fluorophenyl)-1H-pyrrolo[2,3-c]pyridin-2-yl)-5-(pyridin-3-yl)-1H-pyrazolo[3,4-b]pyridine]: the pEC50 is 6.00 in test [1], 5.97 with SW480 colon cancer cells, 6.63 in the test with IL-6 and 6.24 in test [2]. Besides, the Emax in test [3] is 36%.
Take `CC(C)Nc1cncc(-c2cnc3[nH]nc(-c4cc5c(-c6cccc(F)c6)cncc5[nH]4)c3c2)c1` [Compound 12, 5-(3-(4-(3-Fluorophenyl)-1H-pyrrolo[2,3-c]pyridin-2-yl)-1H-pyrazolo[3,4-b]pyridin-5-yl)-N-isopropylpyridin-3-amine]: the negative-log EC50 (pEC50) was 6.15 in test [1], 6.07 in the test on SW480 colon cancer cells, 6.83 in the test on IL-6 and 6.62 in test [2]. Also, the EC50 in test [3] stood at 900 nM. Also, the Emax in test [3] is 104%.
One may read the inhibition as the drop in the measured response relative to a control, in per cent. Turning to `Fc1cccc(-c2cncc3[nH]c(-c4n[nH]c5ncc(-c6cncc(CN7CCCCC7)c6)cc45)cc23)c1` [Compound 15, 3-(4-(3-Fluorophenyl)-1H-pyrrolo[2,3-c]pyridin-2-yl)-5-(5-(piperidin-1-ylmethyl)pyridin-3-yl)-1H-pyrazolo[3,4-b]pyridine], the pEC50 is 5.71 in test [1], 5.49 in the test on SW480 colon cancer cells, < 5.00 in the test with IL-6 and 5.51 in test [2]. In addition, in the test with IL-6, the inhibition at 10 µM is 41%. Moreover, the EC50 in test [3] worked out at 10 nM. The Emax in test [3] amounted to 108%.
Regarding `Fc1cccc(-c2cncc3[nH]c(-c4n[nH]c5ncc(-c6cncc(CNCc7ccccc7)c6)cc45)cc23)c1` [Compound 24, N-Benzyl-1-(5-(3-(4-(3-fluorophenyl)-1H-pyrrolo[2,3-c]pyridin-2-yl)-1H-pyrazolo[3,4-b]pyridin-5-yl)pyridin-3-yl)methanamine], the pEC50 was 5.89 in test [1], 5.55 in the test on SW480 colon cancer cells, 5.68 in the test on IL-6 and 5.41 in test [2]. Besides, in test [3], the EC50 was found to be 900 nM. The Emax in test [3] was 65%.
Consider `Cc1ccncc1-c1cnc2[nH]nc(-c3cc4c(-c5ccc(F)cc5)cncc4[nH]3)c2c1` [Compound 33, 3-(4-(4-Fluorophenyl)-1H-pyrrolo[2,3-c]pyridin-2-yl)-5-(4-methylpyridin-3-yl)-1H-pyrazolo[3,4-b]pyridine], for which the pEC50 is 5.98 in test [1], 5.68 in the test with SW480 colon cancer cells, < 5.00 with IL-6 and < 5.00 in test [2]. The inhibition at 10 µM with IL-6 was 26.1%; in test [2] (SW480, read-out: percent inhibition at 10 μM), 49.4%. The EC50 in test [3] was 10 nM. In addition, the Emax in test [3] worked out at 67%.
As to `Fc1ccc(-c2cncc3[nH]c(-c4n[nH]c5ncc(-c6cncc(CN7CCCC7)c6)cc45)cc23)cc1` [Compound 42, 3-(4-(4-Fluorophenyl)-1H-pyrrolo[2,3-c]pyridin-2-yl)-5-(5-(pyrrolidin-1-ylmethyl)pyridin-3-yl)-1H-pyrazolo[3,4-b]pyridine], the pEC50 in test [1] is 5.89; with SW480 colon cancer cells, 6.03; in the test with IL-6 it was 5.49; in test [2], 5.67. In addition, the EC50 in test [3] stood at 2700 nM. Moreover, the Emax in test [3] amounted to 133%.
For `Fc1ccc(-c2cncc3[nH]c(-c4n[nH]c5ncc(-c6cncnc6)cc45)cc23)cc1` [Compound 55, 3-(4-(4-Fluorophenyl)-1H-pyrrolo[2,3-c]pyridin-2-yl)-5-(pyrimidin-5-yl)-1H-pyrazolo[3,4-b]pyridine], the pEC50 was 6.07 in test [1], 5.95 with SW480 colon cancer cells, < 5.00 in the test with IL-6 and 6.23 in test [2]. Moreover, in the test on IL-6, the inhibition at 10 µM turned out to be 29.8%. Further, the Emax in test [3] was found to be 24%.
Turning to `CCNCc1cncc(-c2cnc3[nH]nc(-c4cc5c(-c6ccccc6F)cncc5[nH]4)c3c2)c1` [Compound 62, N-((5-(3-(4-(2-Fluorophenyl)-1H-pyrrolo[2,3-c]pyridin-2-yl)-1H-pyrazolo [3,4-b]pyridin-5-yl)pyridin-3-yl)methyl)ethanamine], the pEC50 in test [1] was 5.57; in the test with SW480 colon cancer cells, 5.72; with IL-6, 5.04; in test [2] it was 5.64. For the same compound, the Emax in test [3] amounted to 37%.
On to `CC(C)C(=O)Nc1cncc(-c2cnc3[nH]nc(-c4cc5c(-c6ccccc6F)cncc5[nH]4)c3c2)c1` [Compound 65, N-(5-(3-(4-(2-Fluorophenyl)-1H-pyrrolo[2,3-c]pyridin-2-yl)-1H-pyrazolo [3,4-b]pyridin-5-yl)pyridin-3-yl)isobutyramide], for which the pEC50 in test [1] is 5.62; in the test with SW480 colon cancer cells, 5.54; in the test on IL-6, 5.84; in test [2], 5.68. For the same compound, in test [3], the Emax is 45%.
With `Cn1cc(-c2cnc3[nH]nc(-c4cc5c(-c6cc(F)cc(CNS(C)(=O)=O)c6)cncc5[nH]4)c3c2)cn1` [Compound 764, N-(3-Fluoro-5-(2-(5-(1-methyl-1H-pyrazol-4-yl)-1H-pyrazolo[3,4-b]pyridin-3-yl)-1H-pyrrolo[2,3-c]pyridin-4-yl)benzyl)methanesulfonamide], the pEC50 is 5.98 in test [1], < 5.00 with SW480 colon cancer cells, 6.70 in the test with IL-6 and 5.93 in test [2]. Besides, in the test on SW480 colon cancer cells (SW480, 96 h, read-out: percent inhibition at 10 μM), the inhibition at 10 µM amounted to 0%.
